Measured values reported in patent US20240018145A1, “[…]-DEPENDENT EN[…] TREATING OR […]” (priority 2020, published 2024).
Where two headings read alike, the source gives them in different places.

Test system: FLU A (PR/8/34)
Assay: Flu A Neuraminidase Antiviral Assay
Format: cell-based

| Structure (SMILES) | EC50 (MDCK, 48 h) | EC50 |
| --- | --- | --- |
| CN1C(=O)c2c(O)c(=O)ccn2N2[C@H](c3ccccc3)[C@H](OCC3CCCC3)CC[C@@H]12 [Compound 158, (1R,2R,4aS)-2-(cyclopentylmethoxy)-7-hydroxy-5-methyl-1-phenyl-1,2,3,4,4a,5-hexahydrodipyrido[1,2-b:2′,1′-f][1,2,4]triazine-6,8-dione] | 102 nM |  |
| CCN1C(=O)c2c(O)c(=O)ccn2N2C(c3ccccc3)C(CC3(C(F)(F)F)CC3)CCC12 (single isomer, unassigned) [Compound 97A, 5-ethyl-7-hydroxy-1-phenyl-2-((1-(trifluoromethyl)cyclopropyl)methyl)-1,2,3,4,4a,5-hexahydrodipyrido[1,2-b:2′,1′-f][1,2,4]triazine-6,8-dione] |  | > 810 nM |
| CC(C)CC1CC(c2ccccc2)N2C(C1)N(C)C(=O)c1c(O)c(=O)ccn12 (centres unmarked) [Compound 130B, 7-hydroxy-3-isobutyl-5-methyl-1-phenyl-1,2,3,4,4a,5-hexahydrodipyrido[1,2-b:2′,1′-f][1,2,4]triazine-6,8-dione] | 1410 nM |  |
| CCCC1CCC2N(CC)C(=O)c3c(O)c(=O)ccn3N2C1c1ccccc1F (single isomer, unassigned) [Compound 96B, 5-ethyl-1-(2-fluorophenyl)-7-hydroxy-2-propyl-1,2,3,4,4a,5-hexahydrodipyrido[1,2-b:2′,1′-f][1,2,4]triazine-6,8-dione] |  | 2.2 nM |
| CCN1C(=O)c2c(O)c(=O)ccn2N2C(c3ccccc3)C(CC(F)(F)F)CCC12C (single isomer, unassigned) [Compound 82A, 5-ethyl-7-hydroxy-4a-methyl-1-phenyl-2-(2,2,2-trifluoroethyl)-1,2,3,4,4a,5-hexahydrodipyrido[1,2-b:2′,1′-f][1,2,4]triazine-6,8-dione] |  | > 810 nM |
| COc1ccccc1C1CCCC2N(C)C(=O)c3c(O)c(=O)ccn3N12 (single isomer, unassigned) [Compound 19B, 7-hydroxy-1-(2-methoxyphenyl)-5-methyl-1,2,3,4,4a,5-hexahydrodipyrido[1,2-b:2′,1′-f][1,2,4]triazine-6,8-dione] |  | 348 nM |
| CN1C(=O)c2c(O)c(=O)ccn2N2C(c3ccccc3)C(CCC(F)(F)F)CCC12C (single isomer, unassigned) [Compound 78A, 7-hydroxy-4a,5-dimethyl-1-phenyl-2-(3,3,3-trifluoropropyl)-1,2,3,4,4a,5-hexahydrodipyrido[1,2-b:2′,1′-f][1,2,4]triazine-6,8-dione] |  | > 810 nM |
| CN1C(=O)c2c(O)c(=O)ccn2N2C(c3ccccc3C(F)(F)F)CCCC12 (single isomer, unassigned) [Compound 14B, 7-hydroxy-5-methyl-1-(2-(trifluoromethyl)phenyl)-1,2,3,4,4a,5-hexahydrodipyrido[1,2-b:2′,1′-f][1,2,4]triazine-6,8-dione] |  | > 8100 nM |
| CN1C(=O)c2c(O)c(=O)ccn2N2C(c3ccccc3)CCCC12C (single isomer, unassigned) [Compound 59B, 7-hydroxy-4a,5-dimethyl-1-phenyl-1,2,3,4,4a,5-hexahydrodipyrido[1,2-b:2′,1′-f][1,2,4]triazine-6,8-dione] |  | 12.1 nM |
| CN1C(=O)c2c(O)c(=O)ccn2N2C1CCC1(CCC(C(F)(F)F)CC1)C2c1ccccc1 (single isomer, unassigned) [Compound 73D, 7′-hydroxy-5′-methyl-1′-phenyl-4-(trifluoromethyl)-3′,4′,4a′,5′-tetrahydro-1′H-spiro[cyclohexane-1,2′-dipyrido[1,2-b:2′,1′-f][1,2,4]triazine]-6′,8′-dione] |  | 6.6 nM |
| CN1C(=O)c2c(O)c(=O)ccn2N2C(c3ccccc3)C(c3cc(F)c(F)cc3F)CCC12 (single isomer, unassigned) [Compound 86B, 7-hydroxy-5-methyl-1-phenyl-2-(2,4,5-trifluorophenyl)-1,2,3,4,4a,5-hexahydrodipyrido[1,2-b:2′,1′-f][1,2,4]triazine-6,8-dione] |  | > 810 nM |
| CN1C(=O)c2c(O)c(=O)ccn2N2C1CCC1(CCC(F)(F)C1)C2c1ccccc1 (single isomer, unassigned) [Compound 68D, 3,3-difluoro-7′-hydroxy-5′-methyl-1′-phenyl-3′,4′,4a′,5′-tetrahydro-1′H-spiro[cyclopentane-1,2′-dipyrido[1,2-b:2′,1′-f][1,2,4]triazine]-6′,8′-dione] |  | 11.8 nM |
| CC1(c2ccccn2)CCCC2N(CC(F)(F)F)C(=O)c3c(O)c(=O)ccn3N21 (single isomer, unassigned) [Compound 39A, 7-hydroxy-1-methyl-1-(pyridin-2-yl)-5-(2,2,2-trifluoroethyl)-1,2,3,4,4a,5-hexahydrodipyrido[1,2-b:2′,1′-f][1,2,4]triazine-6,8-dione] |  | > 8100 nM |
| CN1C(=O)c2c(O)c(=O)ccn2N2C(c3ccccc3)C(CC(F)F)CCC12 (single isomer, unassigned) [Compound 129C, 2-(2,2-difluoroethyl)-7-hydroxy-5-methyl-1-phenyl-1,2,3,4,4a,5-hexahydrodipyrido[1,2-b:2′,1′-f][1,2,4]triazine-6,8-dione] |  | 6.6 nM |
| CN1C(=O)c2c(O)c(=O)ccn2N2C(c3ccccc3)C(C3CCC(F)(F)CC3)CCC12 (single isomer, unassigned) [Compound 84B, 2-(4,4-difluorocyclohexyl)-7-hydroxy-5-methyl-1-phenyl-1,2,3,4,4a,5-hexahydrodipyrido[1,2-b:2′,1′-f][1,2,4]triazine-6,8-dione] |  | 42 nM |
| CN1C(=O)c2c(O)c(=O)ccn2N2C1CCCC2(C)c1ccccc1Cl (single isomer, unassigned) [Compound 20B, 1-(2-chlorophenyl)-7-hydroxy-1,5-dimethyl-1,2,3,4,4a,5-hexahydrodipyrido[1,2-b:2′,1′-f][1,2,4]triazine-6,8-dione] |  | 4.6 nM |
| CCC1(c2ccccc2)CCC2N(C)C(=O)c3c(O)c(=O)ccn3N21 (single isomer, unassigned) [Compound 62C, 1-ethyl-6-hydroxy-4-methyl-1-phenyl-2,3,3a,4-tetrahydro-1H-pyrido[2,1-f]pyrrolo[1,2-b][1,2,4]triazine-5,7-dione] |  | 7490 nM |
| CN1C(=O)c2c(O)c(=O)ccn2N2C1CCC2(C)c1ccccc1 (single isomer, unassigned) [Compound 61B, 6-hydroxy-1,4-dimethyl-1-phenyl-2,3,3a,4-tetrahydro-1H-pyrido[2,1-f]pyrrolo[1,2-b][1,2,4]triazine-5,7-dione] |  | 2730 nM |
| CN1C(=O)c2c(O)c(=O)ccn2N2C1CCC1(CCCC(F)(F)C1)C2c1ccccc1 (single isomer, unassigned) [Compound 75C, 3,3-difluoro-7′-hydroxy-5′-methyl-1′-phenyl-3′,4′,4a′,5′-tetrahydro-1′H-spiro[cyclohexane-1,2′-dipyrido[1,2-b:2′,1′-f][1,2,4]triazine]-6′,8′-dione] |  | 140 nM |
| CC1(c2ccccc2)CCCC2N(CC3COC3)C(=O)c3c(O)c(=O)ccn3N21 (single isomer, unassigned) [Compound 40A, 7-hydroxy-1-methyl-5-(oxetan-3-ylmethyl)-1-phenyl-1,2,3,4,4a,5-hexahydrodipyrido[1,2-b:2′,1′-f][1,2,4]triazine-6,8-dione] |  | 14.4 nM |
| Cc1cc(=O)c(O)c2n1N1C(c3ccccc3)C(CC(F)(F)F)CCC1N(C)C2=O (single isomer, unassigned) [Compound 132A, 7-hydroxy-5,10-dimethyl-1-phenyl-2-(2,2,2-trifluoroethyl)-1,2,3,4,4a,5-hexahydrodipyrido[1,2-b:2′,1′-f][1,2,4]triazine-6,8-dione] |  | > 810 nM |
| CC1(c2ncc(F)cc2F)CCCC2N(CC(F)F)C(=O)c3c(O)c(=O)ccn3N21 (single isomer, unassigned) [Compound 47B, 5-(2,2-difluoroethyl)-1-(3,5-difluoropyridin-2-yl)-7-hydroxy-1-methyl-1,2,3,4,4a,5-hexahydrodipyrido[1,2-b:2′,1′-f][1,2,4]triazine-6,8-dione] |  | 4380 nM |
| CCCC1CCC2N(C)C(=O)c3c(O)c(=O)ccn3N2C1c1ccccc1Cl (centres unmarked) [Compound 65B, 1-(2-chlorophenyl)-7-hydroxy-5-methyl-2-propyl-1,2,3,4,4a,5-hexahydrodipyrido[1,2-b:2′,1′-f][1,2,4]triazine-6,8-dione] |  | 2.8 nM |
| CN1C(=O)c2c(O)c(=O)ccn2N2C(c3ccccc3Cl)C(CC(F)(F)F)CCC12 (single isomer, unassigned) [Compound 119A, 1-(2-chlorophenyl)-7-hydroxy-5-methyl-2-(2,2,2-trifluoroethyl)-1,2,3,4,4a,5-hexahydrodipyrido[1,2-b:2′,1′-f][1,2,4]triazine-6,8-dione] |  | 3080 nM |
| CN1C(=O)c2c(O)c(=O)ccn2N2C1CCCC2(C)c1ccccn1 (single isomer, unassigned) [Compound 30B, 7-hydroxy-1,5-dimethyl-1-(pyridin-2-yl)-1,2,3,4,4a,5-hexahydrodipyrido[1,2-b:2′,1′-f][1,2,4]triazine-6,8-dione] |  | 5300 nM |
| CCC1(c2ccccc2)CCC2N(C)C(=O)c3c(O)c(=O)ccn3N21 (centres unmarked) [Compound 62A, 1-ethyl-6-hydroxy-4-methyl-1-phenyl-2,3,3a,4-tetrahydro-1H-pyrido[2,1-f]pyrrolo[1,2-b][1,2,4]triazine-5,7-dione] | > 8100 nM |  |
| CN1C(=O)c2c(O)c(=O)ccn2N2C1CCC(O)C2(C)c1ccccc1 (centres unmarked) [Compound 137B, 2,7-dihydroxy-1,5-dimethyl-1-phenyl-1,2,3,4,4a,5-hexahydrodipyrido[1,2-b:2′,1′-f][1,2,4]triazine-6,8-dione] |  | > 8100 nM |
| CCCC1CCC2N(C)C(=O)c3c(O)c(=O)ccn3N2C1(C)c1ccccc1 (single isomer, unassigned) [Compound 33B, 7-hydroxy-1,5-dimethyl-1-phenyl-2-propyl-1,2,3,4,4a,5-hexahydrodipyrido[1,2-b:2′,1′-f][1,2,4]triazine-6,8-dione] |  | 1880 nM |
| CCN1C(=O)c2c(O)c(=O)ccn2N2C(c3ccccc3)C(C3(C(F)(F)F)CC3)CCC12 (single isomer, unassigned) [Compound 104A, 5-ethyl-7-hydroxy-1-phenyl-2-(1-(trifluoromethyl)cyclopropyl)-1,2,3,4,4a,5-hexahydrodipyrido[1,2-b:2′,1′-f][1,2,4]triazine-6,8-dione] |  | 8 nM |
